Drawing on PubChem BioAssay (NCI), this text covers TGI and GI50 for 9 compounds.

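The compound was tested at five concentrations on cells cultured in 96-well plates, with a 48-hour exposure period. GI50 marks 50% less growth. TGI: concentration producing complete growth inhibition.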 Where a SMILES comes first, the peptide text is derived from it. [ ]: non-standard residue; d: D form. ξ: configuration not given here. Pentanoyl(2-O,4-OH,5-Cl) = O=C(O)C(O)CC(O)CCl; Ile(3ξ) = CCC(C)[C@H](N)C(=O)O; NMeV = CN[C@H](C(=O)O)C(C)C; NMeA = CN[C@@H](C)C(=O)O; βAla = NCCC(=O)O

Among the test systems are 786-0 renal; M14 melanoma; MCF7 breast; PC-3 prostate; SK-MEL-2 melanoma; SK-MEL-28 melanoma; SN12C renal; SNB-75 CNS; SR leukemia; TK-10 renal.
Common to all, as to test: NCI-60 cell line screen, 48 h

Regarding `Clc1ccc(NCNC2Nc3ccccc3N2)cc1Cl`, the TGI is above 100 µM in the assay on 786-0 renal; above 100 µM with M14 melanoma; 29.1 µM with MCF7 breast; above 100 µM in the assay on PC-3 prostate; 79.6 µM in the assay with SK-MEL-2 melanoma; above 100 µM in the assay on SK-MEL-28 melanoma. The TGI with SN12C renal, in the assay with SNB-75 CNS, in the assay on SR leukemia and in the assay on TK-10 renal was above 100 µM throughout.
On to `O=C(c1ccccc1)c1nc2ccc(Cl)cc2cc1C(Br)Br`, for which the TGI turned out to be 0.378 µM in the assay with 786-0 renal; 5.65 µM in the assay on M14 melanoma; 1.96 µM in the assay with MCF7 breast; 0.744 µM in the assay on PC-3 prostate; 1.88 µM in the assay on SK-MEL-2 melanoma; 0.814 µM in the assay on SK-MEL-28 melanoma. The TGI came out at 0.836 µM with SN12C renal, 1.41 µM in the assay on SNB-75 CNS, 21.2 µM in the assay with SR leukemia and 1.83 µM in the assay on TK-10 renal.
With `CCC(C)[C@@H]1NC(=O)[C@@H]2CCCN2C(=O)C(CC(O)CCl)OC(=O)CCNC(=O)[C@H](C)N(C)C(=O)[C@H](C(C)C)N(C)C1=O` (some centres not stated) (cyclo([Ile(3ξ)][NMeV][NMeA][βAla][Pentanoyl(2-O,4-OH,5-Cl)]P)), the TGI in the assay on 786-0 renal was above 86.2 µM; in the assay with M14 melanoma, 3.09 µM; with MCF7 breast it was above 100 µM; with PC-3 prostate it was above 100 µM; in the assay with SK-MEL-2 melanoma, 1.89 µM; in the assay on SK-MEL-28 melanoma it was above 100 µM. Moreover, the TGI in the assay with SN12C renal, in the assay on SNB-75 CNS, with SR leukemia and with TK-10 renal was above 100 µM throughout.
Consider `CCCN1CCC(Oc2cc(Nc3nc(Nc4cccc(F)c4C(N)=O)c4cc[nH]c4n3)c(OC)cc2Cl)CC1`, for which the GI50 in the assay on 786-0 renal is 3.65 µM; in the assay with M14 melanoma, 0.859 µM; in the assay with MCF7 breast it was 0.907 µM; in the assay on PC-3 prostate it was 2.55 µM; in the assay on SK-MEL-2 melanoma, 4.5 µM; in the assay with SK-MEL-28 melanoma it was 2.82 µM. Besides, the GI50 in the assay with SN12C renal was 3.97 µM; in the assay on SNB-75 CNS it was 3.22 µM; in the assay with SR leukemia, 1.02 µM; in the assay with TK-10 renal, 3.14 µM. For the same compound, the TGI in the assay on 786-0 renal came to 7.52 µM; in the assay on M14 melanoma, 2.88 µM; with MCF7 breast, 3.97 µM; in the assay with PC-3 prostate, 6.73 µM; in the assay with SK-MEL-2 melanoma, 8.32 µM; with SK-MEL-28 melanoma it was 6.09 µM. The TGI was determined as 7.99 µM in the assay with SN12C renal, 7.79 µM in the assay on SNB-75 CNS, 6.52 µM with SR leukemia and 7.01 µM with TK-10 renal.
As for `Clc1cccc(-c2cc(-c3ccc4c(c3)OCCO4)[nH]n2)c1`, the GI50 is 23.1 µM in the assay with 786-0 renal; 1.49 µM in the assay on M14 melanoma; 4.25 µM in the assay on MCF7 breast; 4.87 µM in the assay with PC-3 prostate; 18.9 µM with SK-MEL-2 melanoma; 27.2 µM with SK-MEL-28 melanoma. Also, the GI50 in the assay on SN12C renal was 5.38 µM; in the assay with SNB-75 CNS it was 2.24 µM; in the assay on SR leukemia it was 0.988 µM; with TK-10 renal, 13.9 µM. Further, the TGI with 786-0 renal was determined as 64.9 µM; with M14 melanoma, 35.3 µM; in the assay on MCF7 breast, 32.9 µM; with PC-3 prostate, 45.8 µM; in the assay on SK-MEL-2 melanoma, 74.9 µM; with SK-MEL-28 melanoma it was 57 µM. Also, the TGI was 40.1 µM with SN12C renal, 34.8 µM with SNB-75 CNS, 98.3 µM in the assay with SR leukemia and 56.1 µM in the assay with TK-10 renal.
For `O=C(O)C1CCCN1` (configuration not stated), the TGI in the assay on 786-0 renal, in the assay on M14 melanoma, with MCF7 breast, in the assay on PC-3 prostate, in the assay with SK-MEL-2 melanoma and in the assay with SK-MEL-28 melanoma was above 100 µM each time. Besides, the TGI with SN12C renal, with SNB-75 CNS, in the assay on SR leukemia and in the assay with TK-10 renal was above 100 µM in each case.
On to `N#Cc1nc2cc(Cl)c(Cl)cc2nc1-c1ccc(Cl)cc1`, for which the GI50 is 16.8 µM in the assay on 786-0 renal; above 85.3 µM in the assay on M14 melanoma; 37.3 µM in the assay on MCF7 breast; 34.8 µM with PC-3 prostate; above 56 µM in the assay on SK-MEL-2 melanoma; above 92 µM with SK-MEL-28 melanoma. In addition, the GI50 in the assay on SN12C renal is 28.5 µM; in the assay with SNB-75 CNS, 19.9 µM; in the assay on SR leukemia, 22 µM; with TK-10 renal, 21.3 µM. The TGI in the assay with 786-0 renal was 34.8 µM; with M14 melanoma, above 100 µM; with MCF7 breast, above 100 µM; in the assay on PC-3 prostate, above 67.7 µM; in the assay on SK-MEL-2 melanoma it was above 100 µM; with SK-MEL-28 melanoma, above 100 µM. The TGI is above 78.6 µM with SN12C renal, 40.2 µM in the assay on SNB-75 CNS, 53.1 µM in the assay with SR leukemia and 46.3 µM with TK-10 renal.
For the compound `C/C(=C1\C(=O)Nc2ccccc21)c1cccc(/C(C)=C2/C(=O)Nc3ccccc32)n1`, the GI50 was 17.3 µM in the assay with 786-0 renal; 6.84 µM in the assay on M14 melanoma; 3.74 µM in the assay with MCF7 breast; 24.4 µM with PC-3 prostate; 63.4 µM in the assay on SK-MEL-2 melanoma; 31.5 µM in the assay on SK-MEL-28 melanoma. Further, the GI50 with SN12C renal is 15.6 µM; in the assay with SNB-75 CNS, 40.2 µM; with SR leukemia, 4.96 µM. In addition, the TGI with 786-0 renal is 89.6 µM; in the assay on M14 melanoma, above 100 µM; in the assay with MCF7 breast it was above 100 µM; in the assay on PC-3 prostate, above 100 µM; in the assay with SK-MEL-2 melanoma, above 100 µM; with SK-MEL-28 melanoma, above 100 µM. Also, the TGI in the assay with SN12C renal is 54.7 µM; with SNB-75 CNS it was above 100 µM; in the assay with SR leukemia it was above 100 µM.
With `COc1cccc2c1C(=O)c1c(O)c3c(c(O)c1C2=O)C[C@@](O)(/C(C)=N/NC(=O)c1cccc([N+](=O)[O-])c1)C[C@@H]3OC1CC(N)C(O)C(C)O1` (some centres not stated), the GI50 in the assay on 786-0 renal is 0.306 µM; in the assay on M14 melanoma, 0.324 µM; with MCF7 breast, 0.0613 µM; with PC-3 prostate it was 0.616 µM; with SK-MEL-2 melanoma it was 0.996 µM; in the assay on SK-MEL-28 melanoma it was 0.608 µM. In addition, the GI50 in the assay with SN12C renal is 0.233 µM; with SNB-75 CNS it was 0.22 µM; in the assay on SR leukemia, 0.0155 µM; with TK-10 renal it was 0.896 µM. Besides, the TGI with 786-0 renal worked out at 5.68 µM; with M14 melanoma it was 1.51 µM; in the assay with MCF7 breast it was 18.5 µM; in the assay with PC-3 prostate, 8.74 µM; with SK-MEL-2 melanoma it was 3.23 µM; with SK-MEL-28 melanoma, 2.45 µM. Besides, the TGI in the assay with SN12C renal is 16.9 µM; with SNB-75 CNS, 1.5 µM; in the assay on TK-10 renal, 10.2 µM.
